The term IC50 denotes the concentration that gives 50% inhibition.

Data set [1] relates to SW-480 (colon adenocarcinoma). Description: cells. Format: cell-based, human. To be noted: read-out: Cancer cell line IC50, SW480.
The test system of data set [2] is HL-60 (promyelocytic leukemia). Nature of the data set: cells. Format: cell-based, human. Particulars: read-out: Cancer cell line IC50, HL-60.
For data set [3], the system named is HL-60, SMMC-7721, A549, MCF-7 and SW-480 human cancer cell lines. Nature of the data set: cells. It is filed as cell-based. To be noted: read-out: IC50 values across the five cancer cell lines.
The subject of data set [4] is SMMC-7721 (hepatocarcinoma). Nature of the data set: cells. To be noted: read-out: Cancer cell line IC50, SMMC-7721. Format: cell-based, human.
Another data set relates to A549 (lung carcinoma). Nature of the data set: cells. It is filed as cell-based, human.
The subject of data set [5] is MCF-7 (breast adenocarcinoma). Description: cells. It is filed as cell-based, human. Particulars: read-out: Cancer cell line IC50, MCF-7.
Data set [6] concerns BEAS-2B normal cell line (human bronchial epithelial cell). Particulars: for IC50: read-out: Cancer cell line IC50, BEAS-2B.
The test system is the same in data set [7]. Description: cells. Particulars: read-out: Cancer cell line IC50, BEAS-2B.
Where [8] appears, read: Homo sapiens, A549, 48 h, read-out: Cancer cell line IC50, A549.
[9] abbreviates: read-out: Cancer cell line IC50, A549.
Setting [10] is: Homo sapiens, A549, read-out: Cancer cell line IC50, A549.

Each structure is given as a SMILES string. “And” between values parts separate entries of the source, which are not always exact repeats. Identical values can stand only once. Like-named read-outs stand apart in the source and are kept apart here.

In the case of `CC1=C[C@]23O[C@@H]4[C@@H](O)C[C@](C)([C@@]2(C)CC1)[C@]4(CO)O3` [Compound 3, sambucinol], the IC50 in data set [1] (Homo sapiens, SW480, 48 h) is greater than 40 µM; in data set [2] (Homo sapiens, HL-60, 48 h), greater than 40 µM; in data set [3] (Homo sapiens, 48 h), greater than 40 µM; in data set [4] (Homo sapiens, SMMC-7721, 48 h), greater than 40 µM; with A549 (lung carcinoma) (setting [8]) it was greater than 40 µM; in data set [5] (Homo sapiens, MCF7, 48 h), greater than 40 µM.

With `N.N.[Cl][Pt][Cl]` [Cisplatin, cisplatin, reference compound], the concentration for half-maximal inhibition (IC50) in data set [6] is 9.53 µM; in data set [1] it was 12 µM; in data set [2] it was 1.91 µM; in data set [4], 5.81 µM; with A549 (lung carcinoma) (setting [9]), 6.43 µM and 9.72 µM; in data set [5], 13.3 µM.

Consider `CC1=C[C@]23O[C@@H]4CC[C@](C)([C@@]2(C)CC1)[C@]4(CO)O3` [Compound 4, 3-deoxysambucinol], for which the IC50 was greater than 40 µM in data set [1] (Homo sapiens, SW480, 48 h); greater than 40 µM in data set [2] (Homo sapiens, HL-60, 48 h); greater than 40 µM in data set [3] (Homo sapiens, 48 h); greater than 40 µM in data set [4] (Homo sapiens, SMMC-7721, 48 h); greater than 40 µM in the data set with A549 (lung carcinoma) (setting [8]); greater than 40 µM in data set [5] (Homo sapiens, MCF7, 48 h).

With `C/C=C\C(=O)O[C@@H]1C[C@H]2O[C@@]34C=C(C)C(=O)C[C@]3(C)[C@]1(C)[C@]2(CO)O4` [Compound 1, engleromycone A], the “selective cytotoxicity against the A549 cell line” value (“selective cytotoxicity” for short) in data set [6] is on record as “did not exhibit selective cytotoxicity”. Further, the IC50 was 20.2 µM in data set [1] (Homo sapiens, SW480, 48 h); 14.3 µM in data set [2] (Homo sapiens, HL-60, 48 h); 14.3 to 20.2 µM in data set [3] (Homo sapiens, 48 h); 19.1 µM in data set [4] (Homo sapiens, SMMC-7721, 48 h); 19.1 µM in the data set with A549 (lung carcinoma) (setting [8]); 18.9 µM in the data set with A549 (lung carcinoma) (setting [10]). For the same compound, the half-maximal inhibitory concentration (IC50) in data set [7] was determined as 19.4 µM; in data set [5] (Homo sapiens, MCF7, 48 h), 18 µM.

As for `C=C1[C@H]2C[C@@H](OC(=O)/C=C\C)[C@]1(C)[C@@]1(C)CC(=O)C(C)=C[C@H]1O2` [Compound 2, engleromycone B], the “selective cytotoxicity” value in data set [6] is “did not exhibit selective cytotoxicity”. For the same compound, the IC50 was 9.25 µM in data set [1] (Homo sapiens, SW480, 48 h); 2.7 µM in data set [2] (Homo sapiens, HL-60, 48 h); 2.7 to 21.1 µM in data set [3] (Homo sapiens, 48 h); 8.41 µM in data set [4] (Homo sapiens, SMMC-7721, 48 h); 2.98 µM with A549 (lung carcinoma) (setting [8]); 5.82 µM with A549 (lung carcinoma) (setting [10]). Moreover, the 50% inhibitory concentration (IC50) turned out to be 9.87 µM in data set [7] and 21.1 µM in data set [5] (Homo sapiens, MCF7, 48 h).

With `CC1=C[C@H]2O[C@@H]3C[C@@H](O)[C@](C)([C@@]2(C)CC1=O)[C@]31CO1` [Compound 5, trichothecolone], in data set [6], the “selective cytotoxicity” value is recorded as “did not exhibit selective cytotoxicity”. The IC50 in data set [6] is 4.18 µM; in data set [1], 8.52 µM; in data set [2], 4.86 µM; in data set [4] it was 6.92 µM; in the data set with A549 (lung carcinoma) (setting [9]), 4.16 µM and 5.71 µM; in data set [5], 16.5 µM.

`C/C=C\C(=O)O[C@@H]1C[C@H]2O[C@@H]3C=C(C)C(=O)C[C@]3(C)[C@]1(C)[C@]21CO1` [Compound 8, trichothecin]: the “selective cytotoxicity” value in data set [6] is “did not exhibit selective cytotoxicity”. In addition, the IC50 is 0.27 µM in data set [6]; 0.18 µM in data set [1]; 0.14 µM in data set [2]; less than 3.5 µM in data set [3]; 0.22 µM in data set [4]; 0.2 µM and 0.22 µM in the data set on A549 (lung carcinoma) (setting [9]). Also, the IC50 in data set [5] turned out to be 0.21 µM.

`CC(=O)O[C@H]1C(=O)[C@@]2(C)[C@H]([C@H](OC(=O)c3ccccc3)[C@]3(O)C[C@H](OC(=O)[C@H](O)[C@@H](NC(=O)c4ccccc4)c4ccccc4)C(C)=C1C3(C)C)[C@]1(OC(C)=O)CO[C@@H]1C[C@@H]2O` [Taxol, paclitaxel, reference compound]: the IC50 in data set [1] (Homo sapiens, SW480, 48 h) is less than 0.008 µM; in data set [2] (Homo sapiens, HL-60, 48 h), less than 0.008 µM; in data set [4] (Homo sapiens, SMMC-7721, 48 h), less than 0.008 µM; in the data set with A549 (lung carcinoma) (setting [8]) it was less than 0.008 µM; with A549 (lung carcinoma) (setting [10]), less than 0.008 µM; in data set [7] it was less than 0.98 µM. In addition, the IC50 in data set [5] (Homo sapiens, MCF7, 48 h) is less than 0.008 µM.

As to `C/C=C\C(=O)O[C@@H]1[C@@H](O)[C@H]2O[C@@H]3C=C(C)C(=O)C[C@]3(C)[C@]1(C)[C@]21CO1` [Compound 10, trichothecinol A], in data set [6], the “selective cytotoxicity” value is “did not exhibit selective cytotoxicity”. The IC50 is 0.025 µM in data set [6]; 0.011 µM in data set [1]; 0.022 µM in data set [2]; less than 3.5 µM in data set [3]; 0.02 µM in data set [4]; 0.015 µM and 0.016 µM in the data set with A549 (lung carcinoma) (setting [9]). Also, the IC50 in data set [5] was determined as 0.006 µM.

The values are drawn from article PMC4328002 (Natural Products and Bioprospecting, 2015).
